Experiments:
Assay type in all cases: cell-based
E. coli [1] = test: Antimicrobial (bioactivity) test, plate counts and dilution method, log reduction; conditions: for bioactivity against E. coli: with cosolvent propylene glycol n-propyl ether, FIG. 6
Procedure: Bioactivity (toxicity) tests were performed using silanols according to the invention along with some controls. E. coli was provided as the target microorganism. […] 20th ed. L. S. Clesceri, A. E. Greenberg, A. D. Eaton (eds.) Washington, D.C. was employed to measure the number of viable cells after the bioactivity tests. The collected sample underwent serial dilutions in which the original sample collected was diluted in a series of dilution tubes. Each succeeding dilution tube will have only one-tenth the number of microbial cells as the preceding tube. Then the samples of the dilution were used to inoculate Petri plates containing solid medium. The sample on the plates was plated evenly over the surface of the solid medium. Colonies grew only on surface of medium and could be counted. This count was used to estimate the number of viable bacterial in the original sample.
Log reduction represents the number of E. coli eliminated through the silanol or other chemical treatment. The experiments were operated for an hour with proper stirring in aqueous solution. […] Log reduction 8 represents the detection limit for the experiment performed, and thus represents complete removal.
(§1) Nine (9) ml of D.I. water was mixed with 1 ml of E. coli solution, and antimicrobial materials for 1 hr with magnetic stirring, then sampling was carried out. The plate counting method as described above was employed to measure the viability of the E. coli.

E. coli [2] = test: Minimum lethal concentration (MLC) against E. coli; conditions: for minimum lethal concentration compared with corresponding alcohol: E. coli, FIG. 10
Procedure: The minimum lethal concentration against E. coli for each silanol is defined as the maximum dilution of the product that will kill a test organism. […] The antimicrobial effect increased with an increase in the number of the alkyl chain of the substituent R, in the order of methyl<ethyl<n-propyl<n-butyl as shown FIG. 5.
Antimicrobial test was carried out to compare the bioactivity of fragrance ingredient of alcohols and the corresponding silanols according to the invention against E. coli. Alcohols, 2-methyl-1-phenyl-2-propanol corresponding to benzyldimethylsilanol, 2-methyl-4-phenyl-2-butanol corresponding to phenethyldimethylsilanol, were obtained from Sigma-Aldrich, and the silanols were prepared by the hydrolysis of chlorosilane.
as §1

E. coli [3] = test: Antimicrobial (bioactivity) test, plate counts and dilution method, log reduction; conditions: 0.2 (% g/g), 10 minute mixing, FIG. 3; below detection limit
[4] = 2 (% g/g), FIG. 4, complete removal
[5] = 0.1% g/g with cosolvent propylene glycol n-propyl ether, FIG. 6/7

| Compound | log reduction of E. coli (E. coli [1]; [4]) | log reduction of E. coli (E. coli [1]; [5]) | further results |
| --- | --- | --- | --- |
| C=C[Si](C)(C)O [vinyldimethylsilanol] | eight | – | – |
| diphenylmethylsilanol | – | 8 log | – |
| CC[Si](O)(CC)CC [triethylsilanol] | eight | 8 log | log reduction of E. coli (E. coli [1]; 2.5 (% g/g), FIG. 2, 8 = detection limit): 8 log; antimicrobial effect (log reduction of E. coli) (E. coli [1]; 10 (% g/g), one hour stirring in aqueous solution, FIG. 1): high antimicrobial effect; antimicrobial effect by minimum lethal concentration (E. coli [2]; FIG. 5): strong antimicrobial effect; reduction of E. coli (E. coli [3]): more than eight |
| vinylphenylmethylsilanol | eight | – | – |
| C[Si](C)(O)c1ccccc1 [Phenyldimethylsilanol] | eight | – | – |
| C[Si](C)(C)O [trimethyisilanol] | – | 8 log | – |
| CC(C)(C)[Si](C)(C)O [t-butyldimethylsilanol] | – | 8 log | – |
| C[Si](C)(O)Cc1ccccc1 [Benzyldimethylsilanol (UF), Benzyldimethylsilanol] | – | – | minimum lethal concentration compared with corresponding alcohol (E. coli [2]): lower than their corresponding alcohols |
| CC(C)(C)O [t-butanol, reference compound] | – | – | bioactivity against E. coli (E. coli [1]): did not provide significant bioactivity |
| C[Si]1(C)O[Si](C)(C)O[Si](C)(C)O[Si](C)(C)O1 [D4, octamethylcyclotetrasiloxane, reference compound] | – | – | bioactivity against E. coli (E. coli [1]): did not provide significant bioactivity |
| C[Si](C)(O)CCc1ccccc1 [Phenethyldimethylsilanol (UF), Phenethyldimethylsilanol] | – | – | minimum lethal concentration compared with corresponding alcohol (E. coli [2]): lower than their corresponding alcohols |
| C[Si](C)(O)CCC(F)(F)F [3,3,3-trifluoropropyldimethylsilanol] | eight | – | – |

From US7347970B2, “Biocides based on silanol terminated silanes and siloxanes” (University of Florida Research Foundation, Inc., priority 2004, dated 2008)
